From BindingDB's records for doi:10.7270/Q2BK19S0 (The Scripps Research Institute Molecular Screening Center, 2010) come the findings set out here.

This test addresses Photoreceptor-specific nuclear receptor (Homo sapiens, UniProt Q9Y5X4). Briefly: NR2E3 inverse agonists, dose response, biochemical, TR-FRET (AID 463256). On the technique in general: Time-resolved FRET reads energy transfer from a long-lived donor to a nearby acceptor.

For orientation: IC50 means the concentration at which inhibition is half-maximal. A high value points to a need for much substance.

Photoreceptor-specific nuclear receptor, sequence (Q9Y5X4 whole entry): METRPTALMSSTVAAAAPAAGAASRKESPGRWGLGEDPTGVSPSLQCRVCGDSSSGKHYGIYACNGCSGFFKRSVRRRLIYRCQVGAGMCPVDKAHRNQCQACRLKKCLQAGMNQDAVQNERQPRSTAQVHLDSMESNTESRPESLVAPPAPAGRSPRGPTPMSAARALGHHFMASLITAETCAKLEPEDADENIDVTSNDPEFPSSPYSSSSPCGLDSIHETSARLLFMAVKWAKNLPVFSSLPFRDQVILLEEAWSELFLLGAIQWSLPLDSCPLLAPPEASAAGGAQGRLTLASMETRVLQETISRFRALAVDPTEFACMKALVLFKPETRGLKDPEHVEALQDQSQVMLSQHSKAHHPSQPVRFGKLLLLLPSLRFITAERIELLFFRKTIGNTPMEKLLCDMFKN

As to `COc1ccc(-n2cc(O)c(-c3nc(-c4ccccc4)cs3)c2N)cc1` [5-amino-1-(4-methoxyphenyl)-4-(4-phenyl-1,3-thiazol-2-yl)-2H-pyrrol-3-one], the IC50 came out at 13.4 µM.
